Experimental data published in patent publication US20050090527A1, “Combination of H1, H3 and H4 receptor antagonists for treatment of allergic and non-allergic pulmonary inflammation, congestion and allergic rhinitis” (Schering Corporation, priority 2003, published 2005).
Read-outs that look alike come from different tables or passages of the source. Values belong to the compound of their own block, whether it stands above or below them.

Tests used:
[1] = molecular target: T1, human histamine H4 receptor (SP9144) (Homo sapiens, UniProt Q9H3N8); assay: Competition binding versus [3H]-histamine on membranes of SP9144-transfected HEK293 cells
T1 construct: expressed in transfected cells; host or cells: HEK293
Procedure: Membrane preparation. Forty-eight hours after transfection with plasmid containing the sequence for SP9144, HEK293 cells were harvested from T150 flasks by incubating 5 minutes in 5 ml of 5 mM EDTA/Hanks' balanced salt solution followed by repeated pipeting. They were centrifuged 5 minutes at 1000×g. The EDTA/PBS was decanted and an equal volume of ice-cold 50 mM Tris-HCl, pH 7.5, was added and cells were broken up with a Polytron (PT10 tip, setting 5, 30 seconds). Nuclei and unbroken cells were sedimented at 1000×g for 10 minutes and then the supernatant was centrifuged at 50,000×g for 10 minutes. The supernatant was decanted, the pellet was resuspended by Polytron, a sample was taken for protein assay (bicinchoninic acid, Pierce; Rockford, Ill.), and the tissue was again centrifuged at 50,000×g. Pellets were stored frozen at −20° C.
Binding assay. […] Samples were filtered on GF/B filters and washed thrice with 2 ml of cold Tris buffer. Filters were dried in a microwave oven, impregnated with Meltilex wax scintillant, and counted at 45% efficiency.
Competition binding assays.
Curves were fit to the data with Prism (GraphPad Software) nonlinear least-squares curve-fitting program and Ki values were derived from IC50 values according to Cheng and Prusoff (Cheng, et al., (1973) Biochem. Pharm. 22:3099-3108).

[2] = tested on: LPS-induced inflammatory response in rat airways; assay: BAL cells recovered from LPS-challenged rats (pulmonary inflammation); format: in vivo; conditions: for Cells (neutrophils or total cells) counted in BAL of LPS-challenged rats compared with rats treated with a blank: oral dosing five hours before LPS; for % Inhibition of neutrophilic cellular influx into BAL in response to LPS challenge / % Inhibition of total cellular influx into BAL in response to LPS challenge: 10 mg/kg orally five hours before intratracheal LPS
Procedure: Male Sprague-Dawley rats (250-300 g) were anesthetized by inhalation of isoflurane (flow rate 1 ml/min; supplemented with O2). Using a Penn-Centry microspray needle, 0.1 ml of a 100-μg/ml LPS solution in saline was injected into the trachea. Animals not challenged with the LPS solution received 0.1 ml of saline. Animals were placed on a heat pad until they recovered from anesthesia. Afterward, they were returned to their cages and allowed food and water ad libitum. All animals survived these manipulations and no additional interventions were required to ensure their survival. Animals fasted overnight were orally dosed with either the standard PD4 inhibitor and positive-control, SB207499 (c4-cyano-4-(3-cyclopentyloxy-4-methoxy-phenyl)-r-1-cyclohexanecarboxylic acid; Barnette, et al., (1998) J. Pharm. Exp. Ther. 284: 420-426), the compound of formula 17 or vehicle as a negative-control (0.4% methylcellulose) five hours before the LPS challenge.
At appropriate time points after intratracheal challenge with LPS, animals were surgically prepared with a tracheal cannula. Surgery was performed under anesthesia. The airways were flushed with 2×2 ml of 0.9% saline and the two washings pooled. Lavage fluid was centrifuged (350 g, 4° C., 7 minutes), supernatant aspirated, erythrocytes lysed, and pellet washed in phosphate-buffered saline containing 10% heat-inactivated fetal calf serum and 10 μg/ml DNase I. The cell suspension was centrifuged, supernatant aspirated, and pellet resuspended in the same buffer. Total cell counts were performed using a Nebauer hemacytometer. Differential cell counts were conducted on Cytospin-prepared slides stained with Fisher's Leukostat stain. At least 200 cells were assessed per slide and standard morphological criteria were used to define neutrophilic cells.
The total number of cells and the number of neutrophils in the broncheoalveolar lavage (BAL) recovered from rats treated with the compound of formula 17, SB207499 or a blank were counted and compared. Fewer cells (i.e., neutrophils or total cells) were counted in the BAL of LPS-challenged rats treated with the compound of formula 17 or with SB207499 than that of rats treated with a blank. […] The data from these experiments is set forth below in Tables 6 and 7.

[3] = molecular target: T2, human H4 (H4-HEK293 cells) (Homo sapiens, UniProt Q9H3N8); assay: Membrane binding assay, [3H]-histamine, for H4 binding
T2 construct: expressed in transfected cells
Procedure: (§1) In the present example, the affinities of several compounds for the H1, H3 and H4 receptors was determined by a membrane binding assay.
(§2) Materials. Rat and guinea-pig brains were obtained frozen from Rockland Immunochemicals (Gilbertsville, Pa.). Cell lines expressing recombinant human receptors were generated by using standard transfection techniques. The following radioligands were obtained from Dupont NEN (Boston, Mass.): [^3H]-pyrilamine, 23 Ci/mmol, for H1 binding; [^3H]-N′-methylhistamine, 82 Ci/mmol, for H3 binding and [^3H]-histamine, 20 Ci/mmol, for H4 binding.
(§3) Methods. Recombinant cell lines (i.e., human H1-CHO cells, human H3-HEK293 and human H4-HEK293 cells) were cultured in Dulbecco's modified Eagle's medium/10% fetal bovine serum supplemented with 2 mM glutamine, penicillin (100 U/ml), and streptomycin (100 μg/ml) in a humidified 5% CO2 atmosphere at 37° C. Selection was maintained with 0.5 mg geneticin/ml. Cells were harvested for membrane preparation by aspirating media, replacing it with Hanks' balanced salt solution/5 mM EDTA, and incubating flasks for 10 minutes at 37° C. Cells were pelleted by centrifugation at 1000×g for ten minutes at 4° C.
(§4) Membrane preparation. Membranes were prepared by disrupting cells or tissue in at least ten volumes of ice-cold 50 mM Tris-HCl, pH 7.5 at 25° C., with a Polytron. homogenates were centrifuged ten minutes at 1000×g and the supernatants were then centrifuged for ten minutes at 50,000×g. Pellets from this centrifugation step were resuspended with a Polytron, a sample was taken for protein determination (BCA; Pierce; Rockford, Ill.), and the resuspension was again centrifuged at 50,000×g. Brain membranes were stored as pellets, cell membranes as suspensions of 1 mg protein/ml Tris buffer at −20° C.
(§5) Binding assays. […] Assay mixtures were incubated for 30 minutes at 30° C. in polypropylene, 96-well, deep-well plates then filtered through 0.3% polyethylenimine-soaked GF/B filters. These were washed three times with 1.2 ml of Tris buffer, dried in a microwave oven, impregnated with Meltilex wax scintillant and counted at 40% efficiency in a Betaplate scintillation counter (Wallac). IC50 values were determined by interpolation or by nonlinear, least-squares, curve-fitting with the Prism program (GraphPad Software). Ki values were determined in the manner of Cheng and Prusoff (Cheng, et al., (1973) Biochem. Pharm. 22:3099-3108).

human H1 (H1-CHO cells) = molecular target: T3, human H1 (H1-CHO cells) (Homo sapiens, UniProt P35367); assay: Membrane binding assay, [3H]-pyrilamine, for H1 binding; conditions: for H1 Ki, value given in %: concentration not given
T3 construct: expressed in transfected cells
Procedure: as §1, §2, §3, §4, §5

[4] = molecular target: T4, human H3 (H3-HEK293 cells) (Homo sapiens, UniProt Q9Y5N1); assay: Membrane binding assay, [3H]-N-methylhistamine, for H3 binding; conditions: concentration not given
T4 construct: expressed in transfected cells
Procedure: Materials. Rat and guinea-pig brains were obtained frozen from Rockland Immunochemicals (Gilbertsville, Pa.). Cell lines expressing recombinant human receptors were generated by using standard transfection techniques.
Methods. […] Selection was maintained with 0.5 mg geneticin/ml. Cells were harvested for membrane preparation by aspirating media, replacing it with Hanks' balanced salt solution/5 mM EDTA, and incubating flasks for 10 minutes at 37° C. Cells were pelleted by centrifugation at 1000×g for ten minutes at 4° C.
Membrane preparation. […] Pellets from this centrifugation step were resuspended with a Polytron, a sample was taken for protein determination (BCA; Pierce; Rockford, Ill.), and the resuspension was again centrifuged at 50,000×g. Brain membranes were stored as pellets, cell membranes as suspensions of 1 mg protein/ml Tris buffer at −20° C.
as §5, with “Software).” for “Software). Ki values were determined in the manner of Cheng and Prusoff (Cheng, et al., (1973) Biochem. Pharm. 22:3099-3108).”

[5] = 18 nM [3H]-histamine, cells printed in μM
[6] = membrane binding, [3H]-histamine, read-out: H4 Ki

T3 sequence (P35367 whole entry): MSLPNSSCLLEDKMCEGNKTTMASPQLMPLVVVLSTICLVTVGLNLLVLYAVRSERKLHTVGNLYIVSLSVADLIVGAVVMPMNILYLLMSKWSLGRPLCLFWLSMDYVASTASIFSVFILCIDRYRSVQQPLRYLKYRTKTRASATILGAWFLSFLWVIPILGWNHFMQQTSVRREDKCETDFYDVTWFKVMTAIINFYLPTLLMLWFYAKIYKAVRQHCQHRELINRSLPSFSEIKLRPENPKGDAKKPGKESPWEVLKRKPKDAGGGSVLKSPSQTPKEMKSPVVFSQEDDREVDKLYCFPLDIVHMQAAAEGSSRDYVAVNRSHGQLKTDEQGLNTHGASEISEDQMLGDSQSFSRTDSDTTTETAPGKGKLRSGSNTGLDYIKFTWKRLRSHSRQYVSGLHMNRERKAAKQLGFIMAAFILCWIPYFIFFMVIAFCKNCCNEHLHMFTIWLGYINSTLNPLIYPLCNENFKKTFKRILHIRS
T4 sequence (Q9Y5N1 whole entry): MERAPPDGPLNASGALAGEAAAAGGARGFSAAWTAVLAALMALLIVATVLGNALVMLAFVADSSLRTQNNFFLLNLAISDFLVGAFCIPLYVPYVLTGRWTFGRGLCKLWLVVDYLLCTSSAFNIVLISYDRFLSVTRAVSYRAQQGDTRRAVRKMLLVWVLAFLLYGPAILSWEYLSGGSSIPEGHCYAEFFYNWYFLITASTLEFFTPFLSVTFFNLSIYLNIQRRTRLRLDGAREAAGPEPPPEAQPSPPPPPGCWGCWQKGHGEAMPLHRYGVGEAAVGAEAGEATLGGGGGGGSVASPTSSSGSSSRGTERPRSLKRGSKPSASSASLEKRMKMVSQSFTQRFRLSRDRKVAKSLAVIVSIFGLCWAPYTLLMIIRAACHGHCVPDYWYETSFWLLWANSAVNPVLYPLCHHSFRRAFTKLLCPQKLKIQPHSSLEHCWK

SMILES: C[C@@H](N)Cc1c[nH]cn1 [(R)-α-methylhistamine]
Ki [1]: 0.14 ± 0.01 µM

SMILES: C[C@H](N)Cc1c[nH]cn1 [(S)-α-methylhistamine]
Ki [1]: 3.4 ± 0.3 µM

SMILES: CN(C)CCC(c1ccc(Cl)cc1)c1ccccn1 (stereo not shown) [Chlorpheniramine]
Ki [1, 5]: > 10 µM

SMILES: CN/C(=N/CCSCc1nc[nH]c1C)NC#N [Cimetidine]
Ki [1, 5]: > 10 µM

SMILES: NC(=NCc1ccc(Cl)cc1)SCCCc1cnc[nH]1 [Clobenpropit]
Ki [1]: 0.0072 ± 0.0005 µM

SMILES: CN(C)CCCSC(=N)N [Dimaprit]
Ki ([1]; read-out: Ki ± SEM versus [3H]histamine binding to SP9144-transfected HEK293 cells, 18 nM [3H]-histamine, 70 μg membrane protein, Ki from IC50 by Cheng and Prusoff): 0.38 ± 0.07 µM

SMILES: Nc1ncc(CN2CCC(F)(C(=O)N3CCC(n4c(-c5ccccn5)nc5cccnc54)CC3)CC2)cn1 [Formula 17]
Cells (neutrophils or total cells) counted in BAL of LPS-challenged rats compared with rats treated with a blank [2]: Fewer cells

SMILES: NC(=NCc1ccc(Cl)cc1)SCCCc1cnc[nH]1 [Formula 18]
Ki [3]: 34 nM

SMILES: O=C(c1ccccn1)N1CCC(Cc2c[nH]cn2)CC1 [Formula 20]
Ki [3, 6]: 38 nM

SMILES: CC(C)(C)CCC#C[C@@H]1C[C@H]1c1c[nH]cn1 [Formula 21]
Ki [3, 6]: 90 nM

SMILES: c1ccc2c(c1)C1CC(CNCCCCc3c[nH]cn3)C2c2ccccc21 (stereo not shown) [Formula 29]
Ki [3, 6]: 440 nM

SMILES: CC(C)(C)c1ccc(S(=O)(=O)NCCCCc2c[nH]cn2)cc1 [Formula 32]
Ki [3, 6]: 850 nM
H1 Ki, value given in % (human H1 (H1-CHO cells)): 32%

SMILES: CC(C)(C(=O)O)c1ccc(C(=O)CCCN2CCC(OC(c3ccccc3)c3ccccc3)CC2)cc1 [Formula 36]
H3 Ki column, value given in % [4]: 1%
H4 Ki column, value given in % ([3]; concentration not given): 2%
Ki (human H1 (H1-CHO cells); membrane binding, [3H]-pyrilamine): 15 nM

SMILES: N=C(N)SCCc1cnc[nH]1 [Imetit]
Ki [1]: 0.0031 ± 0.0007 µM

SMILES: CNCCc1c[nH]cn1 [N^α-methylhistamine]
Ki [1]: 0.063 ± 0.002 µM

SMILES: COc1ccc([C@]2(C#N)CC[C@@H](C(=O)O)CC2)cc1OC1CCCC1 [SB207499, c4-cyano-4-(3-cyclopentyloxy-4-methoxy-phenyl)-r-1-cyclohexanecarboxylic acid, reference compound]
% Inhibition of neutrophilic cellular influx into BAL in response to LPS challenge [2]: 68.7%
% Inhibition of total cellular influx into BAL in response to LPS challenge [2]: 61.2%
Cells (neutrophils or total cells) counted in BAL of LPS-challenged rats compared with rats treated with a blank [2]: Fewer cells

Now from value to compound, other results behind:

Ki [3, 6]: 38 nM
H1 Ki, value given in % (human H1 (H1-CHO cells)): 0%
SMILES: O=C(c1cnc2ccccc2c1)N1CCC(Cc2c[nH]cn2)CC1 [Formula 19]
% Inhibition of neutrophilic cellular influx into BAL in response to LPS challenge [2]: 71.6%
% Inhibition of total cellular influx into BAL in response to LPS challenge [2]: 64.5%

Ki [3, 6]: 92 nM
SMILES: O=C(CCN1CCC(Cc2c[nH]cn2)CC1)Nc1cccc(Cl)c1 [Formula 22]

Ki [3, 6]: 205 nM
SMILES: O=S(=O)(c1ccc(Cl)cc1)N1CCC(CCc2c[nH]cn2)C1 (stereo not shown) [Formula 23]

Ki [3, 6]: 290 nM
SMILES: c1nc(CC2CCN(CCCOc3ccc(CN4CCCCC4)cc3)CC2)c[nH]1 [Formula 24]

Ki [3, 6]: 300 nM
SMILES: O=C(CCN1CCC(Cc2c[nH]cn2)CC1)NCCc1ccc(Cl)cc1 [Formula 25]

Ki [3, 6]: 320 nM
H1 Ki, value given in % (human H1 (H1-CHO cells)): 0%
SMILES: O=C(NCc1ccc(Cc2c[nH]cn2)cc1)Nc1cc(Cl)cc(Cl)c1 [Formula 26]

Ki [3, 6]: 325 nM
SMILES: CN1CCC(N(C)Cc2ccc(OCCCN3CCC(Cc4c[nH]cn4)CC3)cc2)CC1 [Formula 27]

Ki [3, 6]: 390 nM
SMILES: Clc1ccc(C(=C2CCN(CCCCc3c[nH]cn3)CC2)c2ccccn2)cc1 [Formula 28]

Ki [3, 6]: 480 nM
SMILES: Clc1ccc(C(CCNCCCCc2c[nH]cn2)c2ccccn2)cc1 (stereo not shown) [Formula 30]

Ki [3, 6]: 770 nM
SMILES: Clc1ccc(C(=C2CCN(CCCCCc3c[nH]cn3)CC2)c2ccccn2)cc1 [Formula 31]

Ki [3, 6]: 870 nM
SMILES: C/C(=C\C(=O)Nc1ccc(Cl)cc1)c1ccc(Cc2c[nH]cn2)cc1 [Formula 33]

Ki [3, 6]: 1100 nM
H1 Ki, value given in % (human H1 (H1-CHO cells)): 48%
SMILES: O=C(NCCCCc1c[nH]cn1)C1(c2ccc(Cl)cc2)CCC1 [Formula 34]

Ki [3, 6]: 1100 nM
H1 Ki, value given in % (human H1 (H1-CHO cells)): 0%
SMILES: O=C(/C=C/c1ccc(Cc2c[nH]cn2)cc1)NCCc1ccc(Cl)cc1 [Formula 35]
